Laboratory results reported in publication PMC5218480 (PLoS ONE, 2017).

Test system: MV-4-11 cells
Test: Gene expression microarray analysis (Affymetrix PrimeView) and GSEA
Assay type: cell-based, human
Design: RFU PODN (11730768_x_at) / Fold change /veh PODN (11730768_x_at) / RFU LINC00158 (11744669_a_at) / Fold change /veh LINC00158 (11744669_a_at) / RFU DUSP10 (11751237_a_at) / Fold change /veh DUSP10 (11751237_a_at) / RFU ID3 (11757404_x_at) / Fold change /veh ID3 (11757404_x_at) / RFU PLEKHG5 (11737974_s_at) / Fold change /veh PLEKHG5 (11737974_s_at) / RFU LRRC4B (11730491_at) / Fold change /veh LRRC4B (11730491_at) / RFU GIMAP4 (11747438_a_at) / Fold change /veh GIMAP4 (11747438_a_at) / RFU KRT8 (11758183_x_at) / Fold change /veh KRT8 (11758183_x_at) / RFU CNN1 (11734310_a_at) / Fold change /veh CNN1 (11734310_a_at) / RFU VPS37D (11726825_at) / Fold change /veh VPS37D (11726825_at) / RFU C10orf10 (11716522_x_at) / Fold change /veh C10orf10 (11716522_x_at) / RFU KIR2DL2 /// KIR2DL4 /// KIR2DL5A /// KIR2DL5B /// KIR2DS1 /// KIR2DS2 /// KIR2DS3 /// KIR2DS4 /// KIR3DL3 /// KIR3DL3 /// KIR3DS1 (11738374_at) / Fold change /veh KIR2DL2 /// KIR2DL4 /// KIR2DL5A /// KIR2DL5B /// KIR2DS1 /// KIR2DS2 /// KIR2DS3 /// KIR2DS4 /// KIR3DL3 /// KIR3DL3 /// KIR3DS1 (11738374_at) / RFU C1QL1 (11718748_at) / Fold change /veh C1QL1 (11718748_at) / RFU TMPRSS4 (11747572_a_at) / Fold change /veh TMPRSS4 (11747572_a_at) / RFU HAMP (11756126_x_at) / Fold change /veh HAMP (11756126_x_at) / RFU RNFT2 (11725882_a_at) / Fold change /veh RNFT2 (11725882_a_at) / RFU NR4A2 (11747474_a_at) / Fold change /veh NR4A2 (11747474_a_at) / RFU ABCC12 (11746883_a_at) / Fold change /veh ABCC12 (11746883_a_at) / RFU TMEM136 (11760407_x_at) / Fold change /veh TMEM136 (11760407_x_at) / RFU CLDN22 /// WWC2 (11732394_at) / Fold change /veh CLDN22 /// WWC2 (11732394_at) / RFU HLA-DPB1 (11760878_x_at) / Fold change /veh HLA-DPB1 (11760878_x_at) / RFU SPINT1 (11716480_a_at) / Fold change /veh SPINT1 (11716480_a_at) / RFU GAP43 (11754022_s_at) / Fold change /veh GAP43 (11754022_s_at) / RFU A4GNT (11735810_at) / Fold change /veh A4GNT (11735810_at) / RFU PRB3 (11715151_x_at) / Fold change /veh PRB3 (11715151_x_at) / RFU TUBB4B (11761932_at) / Fold change /veh TUBB4B (11761932_at) / RFU CAPN14 (11732068_a_at) / Fold change /veh CAPN14 (11732068_a_at) / RFU TMCC2 (11721928_a_at) / Fold change /veh TMCC2 (11721928_a_at) / RFU IRGQ (11745062_a_at) / Fold change /veh IRGQ (11745062_a_at) / RFU FAM174B (11720279_a_at) / Fold change /veh FAM174B (11720279_a_at) / RFU TMPRSS4 (11748680_a_at) / Fold change /veh TMPRSS4 (11748680_a_at) / RFU FAM212B (11763350_a_at) / Fold change /veh FAM212B (11763350_a_at) / RFU PLEKHG5 (11743358_a_at) / Fold change /veh PLEKHG5 (11743358_a_at) / RFU ZSCAN30 (11745921_a_at) / Fold change /veh ZSCAN30 (11745921_a_at) / RFU CMKLR1 (11741424_a_at) / Fold change /veh CMKLR1 (11741424_a_at) / RFU LOC101060620 /// MAPK8IP1 (11723275_at) / Fold change /veh LOC101060620 /// MAPK8IP1 (11723275_at) / RFU SPTSSB (11747773_x_at) / Fold change /veh SPTSSB (11747773_x_at) / RFU PRSS12 (11739890_at) / Fold change /veh PRSS12 (11739890_at) / RFU BIN1 (11741810_x_at) / Fold change /veh BIN1 (11741810_x_at) / RFU WNT11 (11732464_a_at) / Fold change /veh WNT11 (11732464_a_at) / RFU C10orf10 (11716521_a_at) / Fold change /veh C10orf10 (11716521_a_at) / RFU C5orf56 (11738089_at) / Fold change /veh C5orf56 (11738089_at) / RFU CYB561 (11721691_x_at) / Fold change /veh CYB561 (11721691_x_at) / RFU ANKRD19P (11752326_a_at) / Fold change /veh ANKRD19P (11752326_a_at) / RFU OR2T12 /// OR2T33 /// OR2T8 (11738714_s_at) / Fold change /veh OR2T12 /// OR2T33 /// OR2T8 (11738714_s_at) / RFU VCAN (11748164_a_at) / Fold change /veh VCAN (11748164_a_at) / RFU JSRP1 (11732532_at) / Fold change /veh JSRP1 (11732532_at) / RFU KRTAP10-11 (11738290_x_at) / Fold change /veh KRTAP10-11 (11738290_x_at) / RFU MYO3A (11730013_a_at) / Fold change /veh MYO3A (11730013_a_at) / RFU EBF3 (11725865_a_at) / Fold change /veh EBF3 (11725865_a_at) / RFU CAMK2N1 (11719241_x_at) / Fold change /veh CAMK2N1 (11719241_x_at) / RFU C5orf56 (11738088_a_at) / Fold change /veh C5orf56 (11738088_a_at) / RFU OLFML3 (11715873_a_at) / Fold change /veh OLFML3 (11715873_a_at) / RFU LOC100653217 /// NTM (11731650_a_at) / Fold change /veh LOC100653217 /// NTM (11731650_a_at) / RFU MAPK11 (11762145_a_at) / Fold change /veh MAPK11 (11762145_a_at) / RFU FIZ1 (11724087_x_at) / Fold change /veh FIZ1 (11724087_x_at) / RFU OASL (11726364_x_at) / Fold change /veh OASL (11726364_x_at) / RFU SOX15 (11748057_x_at) / Fold change /veh SOX15 (11748057_x_at) / RFU CD79A (11719716_a_at) / Fold change /veh CD79A (11719716_a_at) / RFU HIST1H1D (11736915_at) / Fold change /veh HIST1H1D (11736915_at) / RFU CASKIN2 (11723855_a_at) / Fold change /veh CASKIN2 (11723855_a_at) / RFU LOC730098 (11760151_x_at) / Fold change /veh LOC730098 (11760151_x_at) / RFU OR4N2 (11742367_at) / Fold change /veh OR4N2 (11742367_at) / RFU PRRT2 (11749266_a_at) / Fold change /veh PRRT2 (11749266_a_at) / RFU SNX32 (11753110_a_at) / Fold change /veh SNX32 (11753110_a_at) / RFU CDHR5 (11726645_a_at) / Fold change /veh CDHR5 (11726645_a_at) / RFU RCAN1 (11760418_a_at) / Fold change /veh RCAN1 (11760418_a_at) / RFU FAM167A (11723789_a_at) / Fold change /veh FAM167A (11723789_a_at) / RFU FAM26E (11764081_at) / Fold change /veh FAM26E (11764081_at) / RFU ISYNA1 (11749810_s_at) / Fold change /veh ISYNA1 (11749810_s_at) / RFU ACY1 (11761880_at) / Fold change /veh ACY1 (11761880_at) / RFU 11764098_at / Fold change /veh 11764098_at / RFU SAMD14 (11745864_x_at) / Fold change /veh SAMD14 (11745864_x_at) / RFU NPB (11741838_a_at) / Fold change /veh NPB (11741838_a_at) / RFU TMPRSS6 (11731388_a_at) / Fold change /veh TMPRSS6 (11731388_a_at) / RFU KRTAP10-2 (11738614_at) / Fold change /veh KRTAP10-2 (11738614_at) / RFU ARHGAP8 /// PRR5-ARHGAP8 (11727945_x_at) / Fold change /veh ARHGAP8 /// PRR5-ARHGAP8 (11727945_x_at) / RFU KRTAP5-7 /// NADSYN1 (11734609_at) / Fold change /veh KRTAP5-7 /// NADSYN1 (11734609_at) / RFU RASL12 (11751679_a_at) / Fold change /veh RASL12 (11751679_a_at) / RFU CDKN2B (11736163_a_at) / Fold change /veh CDKN2B (11736163_a_at) / RFU PRF1 (11729649_at) / Fold change /veh PRF1 (11729649_at) / RFU, ZNF638 /// ZNF638-IT1 / Fold change vs veh, ZNF638 /// ZNF638-IT1 / RFU, PANK3 / Fold change vs veh, PANK3 / RFU, SH3YL1 / Fold change vs veh, SH3YL1 / RFU, ZEB2 / Fold change vs veh, ZEB2 / RFU, NRIP1 / Fold change vs veh, NRIP1 / RFU, PTTG1IP / Fold change vs veh, PTTG1IP / RFU, CAPN2 / Fold change vs veh, CAPN2 / RFU, MED14 / Fold change vs veh, MED14 / RFU, SNORA58 / Fold change vs veh, SNORA58 / RFU, C1orf63 / Fold change vs veh, C1orf63 / RFU, LRRFIP1 / Fold change vs veh, LRRFIP1 / RFU, NDUFAF7 / Fold change vs veh, NDUFAF7 / RFU, SLC12A2 / Fold change vs veh, SLC12A2 / RFU, IBTK / Fold change vs veh, IBTK / RFU, ESF1 / Fold change vs veh, ESF1 / Fold change vs veh, TMEM50B / RFU, TAOK1 / Fold change vs veh, TAOK1 / RFU, ACBD3 / Fold change vs veh, ACBD3 / RFU, TMA16 / Fold change vs veh, TMA16 / RFU, RWDD3 / Fold change vs veh, RWDD3 / RFU, BCAT1 / Fold change vs veh, BCAT1 / RFU, EDEM3 / Fold change vs veh, EDEM3 / RFU, TMEM33 / Fold change vs veh, TMEM33 / RFU, WDR75 / Fold change vs veh, WDR75 / RFU, AHCTF1 / Fold change vs veh, AHCTF1 / RFU, TFRC / Fold change vs veh, TFRC / RFU, ZDHHC17 / Fold change vs veh, ZDHHC17 / RFU, NOM1 / Fold change vs veh, NOM1 / RFU, ARL8B / Fold change vs veh, ARL8B / RFU, ZBTB11 / Fold change vs veh, ZBTB11 / RFU, TAMM41 / Fold change vs veh, TAMM41 / RFU, KIAA1704 /// LOC100996395 / Fold change vs veh, KIAA1704 /// LOC100996395 / RFU, ING1 / Fold change vs veh, ING1 / RFU, TRMT61B / Fold change vs veh, TRMT61B / RFU, FUBP3 / Fold change vs veh, FUBP3 / RFU, TP53 / Fold change vs veh, TP53 / RFU, TNKS2 / Fold change vs veh, TNKS2 / RFU, ZFP14 / Fold change vs veh, ZFP14 / RFU, ACTR2 / Fold change vs veh, ACTR2 / RFU, PPP3R1 / Fold change vs veh, PPP3R1 / RFU, PIK3R1 / Fold change vs veh, PIK3R1 / RFU, HNRNPA1 / Fold change vs veh, HNRNPA1 / RFU, RNF170 / Fold change vs veh, RNF170 / RFU, ZNF28 / Fold change vs veh, ZNF28 / RFU, RNGTT / Fold change vs veh, RNGTT / RFU, OGT / Fold change vs veh, OGT / RFU, BRD1 / Fold change vs veh, BRD1 / RFU, MARS / Fold change vs veh, MARS / RFU, ZNF655 / Fold change vs veh, ZNF655 / RFU, FAHD1 / Fold change vs veh, FAHD1 / RFU, BDP1 / Fold change vs veh, BDP1 / RFU, LRRCC1 / Fold change vs veh, LRRCC1 / RFU, ARID1A / Fold change vs veh, ARID1A / RFU, ZNF146 / Fold change vs veh, ZNF146 / RFU, ZNF330 / Fold change vs veh, ZNF330 / RFU, GPN3 / Fold change vs veh, GPN3 / RFU, C9orf123 / Fold change vs veh, C9orf123 / RFU, N4BP2L2 / Fold change vs veh, N4BP2L2 / RFU, ARFIP1 / Fold change vs veh, ARFIP1 / RFU, FAM179B / Fold change vs veh, FAM179B / RFU, BCL10 / Fold change vs veh, BCL10 / RFU, UHRF1BP1L / Fold change vs veh, UHRF1BP1L / RFU, BET1 / Fold change vs veh, BET1 / RFU, CNOT2 / Fold change vs veh, CNOT2 / RFU, ZNF268 / Fold change vs veh, ZNF268 / Fold change vs veh, ZNF507 / RFU, DGCR2 / Fold change vs veh, DGCR2 / RFU, WDSUB1 / Fold change vs veh, WDSUB1 / Fold change vs veh, HSP90B1 /// MIR3652 / RFU, ADSS / Fold change vs veh, ADSS / RFU, GK / Fold change vs veh, GK / RFU, ZNF148 / Fold change vs veh, ZNF148 / RFU, TAF9 / Fold change vs veh, TAF9 / RFU, SLC1A5 / Fold change vs veh, SLC1A5 / RFU, SLMO2 / Fold change vs veh, SLMO2 / RFU, ABCC4 / Fold change vs veh, ABCC4 / RFU, LOC101060439 /// RAP1B / Fold change vs veh, LOC101060439 /// RAP1B / RFU, RFX7 / Fold change vs veh, RFX7 / RFU, GTPBP10 / Fold change vs veh, GTPBP10 / RFU, CNEP1R1 / Fold change vs veh, CNEP1R1 / RFU, BIVM-ERCC5 /// ERCC5 / Fold change vs veh, BIVM-ERCC5 /// ERCC5 / RFU, ILF3 / Fold change vs veh, ILF3 / RFU 11762660_at / Fold change /veh 11762660_at / RFU VCAN (11757783_s_at) / Fold change /veh VCAN (11757783_s_at) / RFU DDX43 (11728927_at) / Fold change /veh DDX43 (11728927_at) / RFU KRT8 (11758188_x_at) / Fold change /veh KRT8 (11758188_x_at) / RFU NKD1 (11759106_at) / Fold change /veh NKD1 (11759106_at) / RFU SRD5A1 (11742802_a_at) / Fold change /veh SRD5A1 (11742802_a_at) / RFU TPSAB1 /// TPSB2 (11721975_s_at) / Fold change /veh TPSAB1 /// TPSB2 (11721975_s_at) / RFU GSTM3 (11746129_a_at) / Fold change /veh GSTM3 (11746129_a_at) / RFU IL23R (11737362_x_at) / Fold change /veh IL23R (11737362_x_at) / RFU TMEM51 (11727254_a_at) / Fold change /veh TMEM51 (11727254_a_at) / RFU PIWIL2 (11732686_x_at) / Fold change /veh PIWIL2 (11732686_x_at) / RFU ORM1 (11744905_x_at) / Fold change /veh ORM1 (11744905_x_at) / RFU CCDC152 (11743942_at) / Fold change /veh CCDC152 (11743942_at) / RFU ECM1 (11717891_a_at) / Fold change /veh ECM1 (11717891_a_at) / RFU IL23R (11748794_a_at) / Fold change /veh IL23R (11748794_a_at) / RFU TNFAIP8L3 (11732012_x_at) / Fold change /veh TNFAIP8L3 (11732012_x_at) / RFU MBOAT4 (11741988_at) / Fold change /veh MBOAT4 (11741988_at) / RFU 11764193_at / Fold change /veh 11764193_at / RFU TMEM53 (11763286_at) / Fold change /veh TMEM53 (11763286_at) / RFU MAGEB2 (11727129_at) / Fold change /veh MAGEB2 (11727129_at) / RFU TMEM200A (11744735_a_at) / Fold change /veh TMEM200A (11744735_a_at) / RFU CCDC152 (11751479_a_at) / Fold change /veh CCDC152 (11751479_a_at) / RFU FAM211A (11726209_a_at) / Fold change /veh FAM211A (11726209_a_at) / RFU RGS16 (11746705_a_at) / Fold change /veh RGS16 (11746705_a_at) / RFU VCAN (11755009_s_at) / Fold change /veh VCAN (11755009_s_at) / RFU RHOB (11743442_s_at) / Fold change /veh RHOB (11743442_s_at) / RFU RGS16 (11720943_a_at) / Fold change /veh RGS16 (11720943_a_at) / RFU RGS16 (11720944_at) / Fold change /veh RGS16 (11720944_at) / RFU, VPS4B / Fold change vs veh, VPS4B / RFU, CREB1 / Fold change vs veh, CREB1 / RFU, DNAJC13 / Fold change vs veh, DNAJC13 / RFU, GNAQ / Fold change vs veh, GNAQ / RFU, CDK5R1 / Fold change vs veh, CDK5R1 / RFU, ZRANB3 / Fold change vs veh, ZRANB3 / RFU, CUL4A / Fold change vs veh, CUL4A / RFU, CCNY / Fold change vs veh, CCNY / RFU, UFL1 / Fold change vs veh, UFL1 / RFU, COG3 / Fold change vs veh, COG3 / RFU, DIAPH2 / Fold change vs veh, DIAPH2 / RFU, SKA2 / Fold change vs veh, SKA2 / RFU, AFF3 / Fold change vs veh, AFF3 / RFU, LMF1 / Fold change vs veh, LMF1 / RFU, IPO11 / Fold change vs veh, IPO11 / RFU, DFFB / Fold change vs veh, DFFB / RFU, FOXP1 / Fold change vs veh, FOXP1 / RFU, CARD8 / Fold change vs veh, CARD8 / RFU, STRN3 / Fold change vs veh, STRN3 / RFU, ADK / Fold change vs veh, ADK / RFU, RASSF2 / Fold change vs veh, RASSF2 / RFU, WIPF1 / Fold change vs veh, WIPF1 / RFU, LARP1B / Fold change vs veh, LARP1B / RFU, RASA1 / Fold change vs veh, RASA1 / RFU, RB1 / Fold change vs veh, RB1 / RFU, PPFIA1 / Fold change vs veh, PPFIA1 / RFU, MAT2A / Fold change vs veh, MAT2A / RFU, CCT5 / Fold change vs veh, CCT5 / RFU, WDR92 / Fold change vs veh, WDR92 / RFU, CUX1 / Fold change vs veh, CUX1 / RFU, TTC7A / Fold change vs veh, TTC7A / RFU, TMEM135 / Fold change vs veh, TMEM135 / RFU, DEPTOR / Fold change vs veh, DEPTOR / RFU, CPM / Fold change vs veh, CPM / RFU, DNAJB6 / Fold change vs veh, DNAJB6 / RFU, CACNA2D3 / Fold change vs veh, CACNA2D3 / RFU, DTX4 / Fold change vs veh, DTX4 / RFU, TFCP2 / Fold change vs veh, TFCP2 / RFU, GMCL1 /// GMCL1P1 / Fold change vs veh, GMCL1 /// GMCL1P1 / RFU, AEBP2 / Fold change vs veh, AEBP2 / RFU, SNHG1 /// SNORD22 /// SNORD25 /// SNORD26 /// SNORD27 /// SNORD28 /// SNORD29 /// SNORD31 / Fold change vs veh, SNHG1 /// SNORD22 /// SNORD25 /// SNORD26 /// SNORD27 /// SNORD28 /// SNORD29 /// SNORD31 / Fold change (Aza/veh), C12orf56 (ProbeSet 11735607_a_at) / Fold change (ACY-1035/veh), C12orf56 (ProbeSet 11735607_a_at) / Fold change (Aza/veh), FGFR1OP (ProbeSet 11751329_s_at) / Fold change (ACY-1035/veh), FGFR1OP (ProbeSet 11751329_s_at) / Fold change (Aza/veh), VPS36 (ProbeSet 11739960_a_at) / Fold change (ACY-1035/veh), VPS36 (ProbeSet 11739960_a_at) / RFU SYPL1 (11715823_x_at) / Fold change /veh SYPL1 (11715823_x_at) / RFU IGFBP7 (11715501_s_at) / Fold change /veh IGFBP7 (11715501_s_at) / RFU REEP3 (11722064_at) / Fold change /veh REEP3 (11722064_at) / RFU IGLL1 (11728026_x_at) / Fold change /veh IGLL1 (11728026_x_at): dose or concentration left out as unconfirmed
Conditions: ProbeSet 11740011_at; LIST B

SMILES: Nc1ccc(-c2cccs2)cc1NC(=O)c1ccc2c(c1)cc(C1CC1)n2CCN1CCOCC1 [ACY-1035]
- RFU, ZFP14: 75.53 RFU
